Measurements: ChEMBL document CHEMBL4251565, “Functionalized 2,1-benzothiazine 2,2-dioxides as new inhibitors of Dengue NS5 RNA-dependent RNA polymerase” (Eur J Med Chem, 2018)
pIC50, pKd, pKi: −log10 of the molar value.

Key:
Nonstructural protein 5 [1] = target: T1, Nonstructural protein 5 (Dengue virus, UniProt V5TFZ2); test: Inhibition of DENV3 full length NS5 RdRp assessed as decrease in dsRNA levels preincubated for 20 mins followed by ss-RNA and ATTO-CTP, ATP, GTP and UTP addition measured after 120 mins by FAPA assay; set-up: species or system dengue virus type 3
Nonstructural protein 5 [2] = target: T1, Nonstructural protein 5; test: Inhibition of DENV3 NS5 RdRp using ss-RNA PolyC as template and GTP as substrate assessed as decrease in dsRNA levels after 1 hr by PicoGreen-based fluorescence assay; set-up: species or system dengue virus type 3
Nonstructural protein 5 [3] = target: T1, Nonstructural protein 5; test: Mixed type inhibition of DENV3 NS5 RdRp using increasing concentration of ss-RNA PolyC as template assessed as enzyme-substrate complex after 1 hr in presence of GTP substrate by Lineweaver-Burk double reciprocal plot analysis; set-up: species or system dengue virus type 3
[4] = Induction of colloidal aggregate formation in aqueous medium at 50 uM measured for 5 mins by light scattering-based photon correlation spectroscopy; format: physicochemical; conditions: buffer
Nonstructural protein 5 [5] = target: T1, Nonstructural protein 5; test: Binding affinity to DENV3 NT-647-NHS labeled NS5 RdRp after 1 hr by microscale thermophoresis method; set-up: species or system dengue virus type 3
Nonstructural protein 5 [6] = target: T1, Nonstructural protein 5; test: Mixed type inhibition of DENV3 NS5 RdRp using increasing concentration of GTP as substrate assessed as enzyme-substrate complex after 1 hr in presence of ss-RNA PolyC template by Lineweaver-Burk double reciprocal plot analysis; set-up: species or system dengue virus type 3
Nonstructural protein 5 [7] = target: T1, Nonstructural protein 5; test: Mixed type inhibition of DENV3 NS5 RdRp using increasing concentration of GTP as substrate assessed as free enzyme after 1 hr in presence of ss-RNA PolyC template by Lineweaver-Burk double reciprocal plot analysis; set-up: species or system dengue virus type 3
[8] = Cytotoxicity against African green monkey Vero E6 cells by Cell Titer-blue method; format: cell-based, Vero C1008; conditions: chlorocebus sabaeus
Nonstructural protein 5 [9] = target: T1, Nonstructural protein 5; test: Mixed type inhibition of DENV3 NS5 RdRp using increasing concentration of ss-RNA PolyC as template assessed as free enzyme after 1 hr in presence of GTP substrate by Lineweaver-Burk double reciprocal plot analysis; set-up: species or system dengue virus type 3

T1 sequence (V5TFZ2 whole entry): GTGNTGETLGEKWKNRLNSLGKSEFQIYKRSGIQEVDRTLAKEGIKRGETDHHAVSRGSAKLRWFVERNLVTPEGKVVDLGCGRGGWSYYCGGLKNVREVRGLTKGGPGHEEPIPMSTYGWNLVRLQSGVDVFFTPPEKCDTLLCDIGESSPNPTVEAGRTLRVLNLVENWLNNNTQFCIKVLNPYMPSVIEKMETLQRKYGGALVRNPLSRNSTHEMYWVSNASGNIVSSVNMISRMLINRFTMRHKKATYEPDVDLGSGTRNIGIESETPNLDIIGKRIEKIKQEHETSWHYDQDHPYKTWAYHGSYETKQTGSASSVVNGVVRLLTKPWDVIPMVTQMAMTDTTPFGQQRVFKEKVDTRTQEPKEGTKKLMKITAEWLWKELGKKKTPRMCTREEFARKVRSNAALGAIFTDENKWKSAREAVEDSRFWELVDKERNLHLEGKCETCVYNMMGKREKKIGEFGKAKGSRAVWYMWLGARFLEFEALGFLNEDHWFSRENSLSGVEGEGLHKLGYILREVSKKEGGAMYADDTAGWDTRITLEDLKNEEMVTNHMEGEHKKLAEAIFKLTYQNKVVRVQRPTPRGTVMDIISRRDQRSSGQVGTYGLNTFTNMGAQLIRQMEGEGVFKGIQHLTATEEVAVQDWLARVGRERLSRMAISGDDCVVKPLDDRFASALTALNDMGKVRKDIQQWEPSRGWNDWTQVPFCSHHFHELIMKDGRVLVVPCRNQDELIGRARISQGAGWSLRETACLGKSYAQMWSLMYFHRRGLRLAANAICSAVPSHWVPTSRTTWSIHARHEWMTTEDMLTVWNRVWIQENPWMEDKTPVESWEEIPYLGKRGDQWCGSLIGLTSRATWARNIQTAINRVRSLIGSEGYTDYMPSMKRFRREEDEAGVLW

| SMILES | pIC50 (Nonstructural protein 5 [2]) | other results |
| --- | --- | --- |
| COc1cc(C)c(C(=O)NS(=O)(=O)c2cccc3cccnc23)cc1-c1ccc(C#CCO)s1 |  | pIC50 (Nonstructural protein 5 [1]): 7.80 |
| COC1=CS(=O)(=O)N(C(=O)c2ccccc2)c2ccc(Oc3ccccc3Br)cc21 | 4.34 |  |
| O=C(OC1=CS(=O)(=O)Nc2ccc(Oc3cccc(F)c3)cc21)c1ccccc1 | 5.15 |  |
| O=C(OC1=CS(=O)(=O)Nc2ccc(Oc3ccccc3Br)cc21)c1ccccc1 | 4.51 |  |
| COc1cccc(Oc2ccc3c(c2)C(OC(=O)c2ccccc2)=CS(=O)(=O)N3)c1 | 4.69 |  |
| COC1=CS(=O)(=O)Nc2ccc(Oc3ccccc3Br)cc21 | < 4.30 |  |
| CN1c2c(C(=O)Nc3ccc(NS(C)(=O)=O)cc3)nn(-c3cccc(F)c3)c2-c2ccccc2S1(=O)=O | 4.76 |  |
| COc1ccc(C(=O)OC2=CS(=O)(=O)Nc3ccc(Oc4cccc(Br)c4)cc32)cc1[N+](=O)[O-] | 5.33 |  |
| CN1c2ccc(Oc3cccc(Br)c3)cc2C(OC(=O)c2ccccc2)=CS1(=O)=O | 5.59 |  |
| O=C(O)c1cc(Oc2cccc(Br)c2)ccc1NS(=O)(=O)c1ccc([N+](=O)[O-])cc1 | 5.77 |  |
| O=C(O)c1cc(Oc2cccc(Br)c2)ccc1NS(=O)(=O)c1ccccc1 | 5.35 |  |
| O=C(OC1=CS(=O)(=O)Nc2ccc(Oc3cccc(Br)c3)cc21)c1ccccc1 | 5.15 |  |
| CCc1cccc(Oc2ccc3c(c2)C(OC(=O)c2ccccc2)=CS(=O)(=O)N3)c1 | 5.16 |  |
| CN1c2c(C(=O)Nc3ccc(NS(C)(=O)=O)cc3)nn(-c3ccc(Cl)cc3)c2-c2ccccc2S1(=O)=O | 4.87 |  |
| O=C(OC1=CS(=O)(=O)Nc2ccc(Oc3ccccc3Br)cc21)c1ccc(F)c(F)c1 | 6.22 | pKi (Nonstructural protein 5 [3]): 5.36; Activity [4]: Not Active; pKd (Nonstructural protein 5 [5]): 5.96; pKi (Nonstructural protein 5 [6]): 5.80; pKi (Nonstructural protein 5 [7]): 6.60; CC50 [8]: 80 µM; pKi (Nonstructural protein 5 [9]): 5.81 |
| Cc1ccc(-n2nc(C(=O)Nc3ccc(NS(C)(=O)=O)cc3)c3c2-c2ccccc2S(=O)(=O)N3C)cc1 | 4.85 |  |
| O=C(OC1=CS(=O)(=O)Nc2ccc(Oc3cccc(Br)c3)cc21)c1cccc([N+](=O)[O-])c1 | 5.08 |  |
| O=C(OC1=CS(=O)(=O)Nc2ccc(Oc3ccc(Br)cc3)cc21)c1ccccc1 | 5.33 |  |
| CCOC1=CS(=O)(=O)Nc2ccc(Oc3ccccc3Br)cc21 | 4.38 |  |
| COc1ccc(C(=O)OC2=CS(=O)(=O)Nc3ccc(Oc4ccccc4Br)cc32)cc1[N+](=O)[O-] | 5.20 |  |
| O=C1CS(=O)(=O)N(C(=O)c2ccccc2)c2ccc(Oc3ccccc3Br)cc21 | 4.94 |  |
| O=C(OC1=CS(=O)(=O)Nc2ccc(Oc3cccc(Br)c3)cc21)c1ccc(F)c(F)c1 | 6.05 |  |
| CC(C)(C)c1cccc(Oc2ccc3c(c2)C(OC(=O)c2ccccc2)=CS(=O)(=O)N3)c1 | 4.80 |  |
| O=C1CCN(C(=O)c2ccccc2)c2ccc(Oc3ccccc3Br)cc21 | < 4.30 |  |
